The values that follow come from PubChem BioAssay AID608 (Sanford-Burnham Center for Chemical Genomics, 2007).

The structures appear in SMILES notation. Calls of active or inactive are those of the source. The rule behind the calls is not given here.

Sequence of Peptidyl-prolyl cis-trans isomerase FKBP1A (Homo sapiens) (P62942 whole entry, looked up): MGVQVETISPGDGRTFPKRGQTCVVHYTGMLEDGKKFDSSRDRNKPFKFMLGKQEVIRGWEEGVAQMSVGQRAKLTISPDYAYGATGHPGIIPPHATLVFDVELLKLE

The assay concerns the target Peptidyl-prolyl cis-trans isomerase FKBP1A (Homo sapiens) (UniProt P62942). The experiment in a line: small-molecule binding to FKBP12 – biophysical, NMR detection (AID 608). To be noted: purified FKBP12.
Take `O=C(O)c1cccc2c1OCCO2`: the Kd is > 4 mM (inactive).

On to `CC(C)CCCC1(C)C=Cc2c(O)c3c(c(CCC(C)C)c2O1)OC12C(CC4CC1C(C)(C)OC2(CCC(C)C(=O)O)C4O)C3=O` (configuration not stated), for which the Kd was > 4 mM (inactive). As for `Cc1onc(-c2ccccc2)c1CN`, the figure is > 4 mM (inactive); as for `Cn1nnc2cc(C(=O)NC3CCCCC3)ccc21`, > 4 mM (inactive); as for `C=CCc1ccc2c(c1)OCO2`, > 4 mM (inactive). As for `O=C(Nc1ccc2c(c1)OCO2)c1cnn2cccnc12`, the Kd was > 4 mM (inactive). `C=C1C2CC[C@@]3(C)[C@H](c4ccoc4)OC(=O)C[C@]13O[C@H]1C[C@H](OC(C)=O)C(C)(C)[C@H](CC(=O)OC)[C@@]21C`: the Kd was > 4 mM (inactive). The same measure for `Cc1cccc(NC(=O)CN2C(=O)CNC2=O)c1`: > 4 mM (inactive); for `Nc1nc(NCc2ccco2)nn1-c1ccccc1`: > 4 mM (inactive); for `C[C@@H]1CC[C@]2(C(=O)O)CC[C@]3(C)C(=CCC4[C@@]5(C)CC[C@H](O)C(C)(C)C5CC[C@]43C)C2[C@H]1C` (some centres not stated): > 4 mM (inactive). Consider `COc1ccc(-c2cc(=O)c3ccccc3o2)cc1OC`, for which the Kd is > 4 mM (inactive). With `ON=c1ccc2nc3ccccc3nc2cc1`, the Kd is > 4 mM (inactive). With `COC(=O)[C@@H]1OC(=O)[C@H]2O[C@@]23[C@@]1(C)CCC1[C@@]2(C)CCC(=O)C(C)(C)C2C[C@@H](OC(C)=O)[C@]13C` (some centres not stated), the Kd is > 4 mM (inactive). For `OC12C=CC(CC1)CC2`, the Kd was > 4 mM (inactive). With `CC(=O)c1c(O)cc(O)cc1O`, the Kd was > 4 mM (inactive). For `NC1=NC(=O)CC(C(=O)Nc2ccccc2)S1` (configuration not stated), the Kd is > 4 mM (inactive). As for `COc1ccc(CN2CCNC(=O)C2CC(=O)O)cc1C` (configuration not stated), the Kd was > 4 mM (inactive). Turning to `CCn1cnc2sc(C(=O)O)c(C)c2c1=O`, the Kd was > 4 mM (inactive).

Consider `CC(C)(C)NC(=O)N1CCC(C(=O)O)CC1`, for which the Kd was > 4 mM (inactive).

On to `COc1ccc2c(c1)[n+](=O)c(C(C)=O)c(C)n2[O-]`, for which the Kd is > 4 mM (inactive). As for `c1ccc(-c2nc3ccccc3nc2-c2ccccn2)nc1`, the figure is > 4 mM (inactive); as for `COC(=O)c1ccc(Cl)c(NC(C)=O)c1`, > 4 mM (inactive); as for `CN1CCc2c(sc(N)c2C#N)C1`, > 4 mM (inactive). `O=C1NC(=S)N/C1=C\c1ccccc1`: the Kd is > 4 mM (inactive). Regarding `CCCn1cnc2sc(C(N)=O)c(C)c2c1=O`, the Kd is > 4 mM (inactive).

Consider `CCOc1nc(C)ccc1-c1noc(-c2ccco2)n1`, for which the Kd was > 4 mM (inactive). As for `O=C1c2ccccc2-c2ncnc3cccc1c23`, the Kd is > 4 mM (inactive). The same measure for `CN1CCN(c2ncnc3nc[nH]c23)CC1`: > 4 mM (inactive); for `OCc1nccn1Cc1ccccc1`: > 4 mM (inactive); for `N=Cc1c(O)n(-c2cccc(Cl)c2)c(=O)[nH]c1=O`: > 4 mM (inactive).

With `C=C[C@@](C)(O)CCC1C(=C)C[C@H](OC(C)=O)C2C(C)(C)CCCC12C` (some centres not stated), the Kd is > 4 mM (inactive). With `CNC(=O)c1cc(S(=O)(=O)N(C)C)ccc1Cl`, the Kd was > 4 mM (inactive). In the case of `O=C(Nc1ccccc1)c1cnc2n(c1=O)CCS2`, the Kd is > 4 mM (inactive).

For the compound `Cc1c(C)[n+](=O)c(-c2cccs2)c(C)n1[O-]`, the Kd is > 4 mM (inactive). As for `CNC(=O)c1cc(C)c(-c2ccccc2)s1`, the Kd was > 4 mM (inactive). As for `Cn1c(SCCC(=O)O)nnc1-c1cccnc1`, the figure is > 4 mM (inactive); as for `O=C1CCCC(=O)N1Cc1ccco1`, > 4 mM (inactive); as for `Cc1nn2c(-c3ccncc3)nnc2c2ccccc12`, > 4 mM (inactive).

Consider `COc1cc2c(cc1OC)C1(O)C(=O)c3ccc(O)c(C(=O)O)c3OC1CO2` (configuration not stated), for which the Kd was > 4 mM (inactive). The same measure for `Cc1cc(C(=O)NCc2ccccc2Br)no1`: > 4 mM (inactive); for `CC(C)=CCc1c(O)cc2occ(-c3ccc4c(c3)OCO4)c(=O)c2c1O`: > 4 mM (inactive); for `O=c1cnnc(SCCc2ccccc2)[nH]1`: > 4 mM (inactive). As to `CCN(CC)S(=O)(=O)c1cccc2nsnc12`, the Kd was > 4 mM (inactive). The same measure for `CC1(C)O[C@H]2[C@H](O)C[C@](O)(C(N)=O)C[C@H]2O1`: > 4 mM (inactive). Regarding `O=C(Nc1c[nH]c(=O)[nH]c1=O)c1cccs1`, the Kd was > 4 mM (inactive).

Take `c1csc(-c2nn[nH]n2)c1`: the Kd was > 4 mM (inactive). The same measure for `Cc1ccccc1NC(=O)c1ccccc1`: > 4 mM (inactive); for `CC(C)(C)P(=O)(O)c1ccccc1`: > 4 mM (inactive); for `Cc1ccnc(NS(=O)(=O)c2ccccc2)n1`: > 4 mM (inactive). The same measure for `C=C1C(=O)O[C@@H]2C[C@@]3(C)CCC[C@H](C)C3=C[C@H]12`: > 4 mM (inactive). Regarding `NC(=O)Cc1nc(-c2ccc(F)cc2)cs1`, the Kd was > 4 mM (inactive). The same measure for `Cc1cc(C)nc(/N=C(/N)N2CCC(C(N)=O)CC2)n1`: > 4 mM (inactive); for `NC(=O)c1ccc(NC(=O)c2ccco2)cc1`: > 4 mM (inactive); for `Oc1cnc2ccccc2c1CN1CCOCC1`: > 4 mM (inactive). `COc1cccc(-c2nc(-c3ccccn3)no2)c1OC`: the Kd was > 4 mM (inactive). `CS(=O)(=O)NN=C1CCCCC1`: the Kd is > 4 mM (inactive). Regarding `N=C1/C(=C\c2ccccc2)C(=O)N=C2SC=NN12`, the Kd is > 4 mM (inactive). The same measure for `O=c1c(Cl)c(NCCO)ncn1-c1ccccc1`: > 4 mM (inactive). Take `COc1ccc(C(=O)/C=C/c2ccccc2)cc1`: the Kd was > 4 mM (inactive). `CC(=O)Nc1cccc(Cn2cccn2)c1`: the Kd was > 4 mM (inactive).

Turning to `COc1cc2ccc(=O)oc2c(OC)c1OC`, the Kd is > 4 mM (inactive). The same measure for `CC(C)=CCCC1(C)C=Cc2c(O)c3c(c(CC=C(C)C)c2O1)OC12C(=CCCC1C(C)(C)O[C@@]2(C/C=C(\C)C(=O)O)C(=O)O)C3=O` (some centres not stated): > 4 mM (inactive). With `O=C(Nc1ccon1)c1cc2c(s1)CCCC2`, the Kd was > 4 mM (inactive). As for `CN1C(=O)c2ccc(N=C3NC(=O)CS3)cc2C1=O`, the figure is > 4 mM (inactive); as for `Cc1cccc(N2CCN(C(=O)c3ccncc3)CC2)c1C`, > 4 mM (inactive). As for `O=C(O)c1ccc2ccccc2n1`, the figure is > 4 mM (inactive); as for `Cc1noc(C)c1C(=O)N1CCC(Cc2ccccc2)CC1`, > 4 mM (inactive); as for `COC(=O)c1c[nH]c2ccccc12`, > 4 mM (inactive).

For `O=C(O)c1ccc(Oc2ccccc2)nc1`, the Kd is > 4 mM (inactive).

Regarding `O=C(O)CCS(=O)(=O)c1ccccc1`, the Kd is > 4 mM (inactive). In the case of `CNC(=O)c1ccccc1N`, the Kd is > 4 mM (inactive). As for `Cc1csc2nc3ccccc3c(=O)n12`, the figure is > 4 mM (inactive); as for `Cc1noc(C)c1CSc1nc2ccccc2[nH]1`, 0.157 mM; as for `O=c1[nH]c(NCCO)nnc1Cc1ccccc1`, > 4 mM (inactive). For `CC1(C)N=C2C(=[N+]1[O-])CCC/C2=N\O`, the Kd is > 4 mM (inactive).

Regarding `Cn1c(=O)[nH]c2nc[nH]c2c1=O`, the Kd is > 4 mM (inactive). On to `CC(=O)NC(=S)Nc1ccccc1C`, for which the Kd is > 4 mM (inactive).

Turning to `O=C1CCC(=O)N1CNc1ccccc1`, the Kd was > 4 mM (inactive).

In the case of `CCN1C(=O)N(CO)C2C1N(C)C(=O)N2C` (configuration not stated), the Kd is > 4 mM (inactive). Turning to `Cn1ncc(N2CCOCC2)c(Cl)c1=O`, the Kd is > 4 mM (inactive). In the case of `O=C(O)c1ccc(-n2ccnc2)cc1`, the Kd was > 4 mM (inactive).

Regarding `CC(=O)c1c(C)n(O)c2ccc3nonc3c12`, the Kd is > 4 mM (inactive). The same measure for `CCOC(=O)c1cnc2cc(C)nn2c1C`: > 4 mM (inactive); for `NC(=O)CSc1nnnn1-c1ccccc1`: > 4 mM (inactive); for `O=C(O)C1CN(Cc2ccccc2)CCO1` (configuration not stated): > 4 mM (inactive). As for `O=C1CN2C(=N1)N(Cc1ccccc1)c1ccccc12`, the figure is > 4 mM (inactive). As for `Cc1cc(C(=O)N2CCN(c3ccccn3)CC2)no1`, the figure is > 4 mM (inactive). As to `Cc1ccc(SCc2nc(-c3ccncc3)no2)cc1`, the Kd result was “inactive”. In the case of `Cn1nc(C(=O)NC2CCCCC2)c2ccccc2c1=O`, the Kd was > 4 mM (inactive). On to `O=C(Nc1cccc(Cl)c1)c1cnn2cccnc12`, for which the Kd is > 4 mM (inactive).

Turning to `O=C(O)c1ncoc1-c1ccccc1`, the Kd was > 4 mM (inactive). Regarding `O=C(O)c1c[nH]c2ccccc12`, the Kd is > 4 mM (inactive). The same measure for `[O-][n+]1onc2c1CCc1c-2nc(-c2ccccc2)n1O`: > 4 mM (inactive); for `CC1=C(C(N)=O)C(c2cccs2)C(C(N)=O)=C(C)N1`: > 4 mM (inactive). On to `COc1cc(C2NC(=S)NC(C)=C2C(C)=O)ccc1O` (configuration not stated), for which the Kd was > 4 mM (inactive). As for `N[C@@H](Cc1ccc(O)c(O)c1)C(=O)O`, the Kd is > 4 mM (inactive). Turning to `O=C(O)Cn1nc(-c2ccccc2)c2ccccc2c1=O`, the Kd is > 4 mM (inactive). The same measure for `C=CCn1c(N)c(C(=O)N2CCOCC2)sc1=S`: > 4 mM (inactive). In the case of `CC1NC(C(=O)O)Cc2c1[nH]c1ccccc21` (configuration not stated), the Kd is > 4 mM (inactive). On to `O=C(O[C@@H]1Cc2c(O)cc(O)cc2O[C@@H]1c1cc(O)c(O)c(O)c1-c1c([C@H]2Oc3cc(O)cc(O)c3C[C@H]2O)cc(O)c(O)c1O)c1cc(O)c(O)c(O)c1`, for which the Kd is > 4 mM (inactive). Regarding `Cc1csc(NC(=O)c2ccoc2C)n1`, the Kd was > 4 mM (inactive). For the compound `COc1ccc(C)cc1S(N)(=O)=O`, the Kd is > 4 mM (inactive).

What is called Kd is the constant that tells how readily two partners part at equilibrium.
